Measurements taken from PubChem BioAssay (NCI).
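Grown in 96-well plates, cells were treated for 48 hours with each compound at five concentrations. Insufficient inhibition: endpoint recorded as highest concentration tested. Abbreviation: GI50, concentration required for 50% inhibition of growth. Definition used: TGI = concentration required for complete inhibition of growth.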

Legend:
Assay in all cases: inhibition of tumour cell growth, NCI panel, 48 h; in the data active means GI50 below about 0.43 µM; inactive means the rest
786-0 renal = system: 786-0 renal
A498 renal = system: A498 renal
A549 NSCLC = system: A549 NSCLC
ACHN renal = system: ACHN renal
BT-549 breast = system: BT-549 breast
CAKI-1 renal = system: CAKI-1 renal
CCRF-CEM leukemia = system: CCRF-CEM leukemia
COLO 205 colon = system: COLO 205 colon
DU-145 prostate = system: DU-145 prostate
EKVX NSCLC = system: EKVX NSCLC
HCC-2998 colon = system: HCC-2998 colon
HCT-116 colon = system: HCT-116 colon
HCT-15 colon = system: HCT-15 colon
HL-60(TB) leukemia = system: HL-60(TB) leukemia
HOP-62 NSCLC = system: HOP-62 NSCLC
HOP-92 NSCLC = system: HOP-92 NSCLC
HS 578T breast = system: HS 578T breast
HT29 colon = system: HT29 colon
IGROV1 ovarian = system: IGROV1 ovarian
K-562 leukemia = system: K-562 leukemia
KM12 colon = system: KM12 colon
LOX IMVI melanoma = system: LOX IMVI melanoma
M14 melanoma = system: M14 melanoma
MALME-3M melanoma = system: MALME-3M melanoma
MDA-MB-231 breast = system: MDA-MB-231 breast
MDA-MB-435 = system: MDA-MB-435
MOLT-4 leukemia = system: MOLT-4 leukemia
NCI-H226 lung = system: NCI-H226 lung
NCI-H23 lung = system: NCI-H23 lung
NCI-H460 lung = system: NCI-H460 lung
NCI-H522 lung = system: NCI-H522 lung
NCI/ADR-RES ovarian = system: NCI/ADR-RES ovarian
OVCAR-3 ovarian = system: OVCAR-3 ovarian
OVCAR-4 ovarian = system: OVCAR-4 ovarian
OVCAR-5 ovarian = system: OVCAR-5 ovarian
OVCAR-8 ovarian = system: OVCAR-8 ovarian
PC-3 prostate = system: PC-3 prostate
RPMI-8226 leukemia = system: RPMI-8226 leukemia
RXF 393 renal = system: RXF 393 renal
SF-268 CNS = system: SF-268 CNS
SF-295 CNS = system: SF-295 CNS
SF-539 CNS = system: SF-539 CNS
SK-MEL-2 melanoma = system: SK-MEL-2 melanoma
SK-MEL-28 melanoma = system: SK-MEL-28 melanoma
SK-MEL-5 melanoma = system: SK-MEL-5 melanoma
SK-OV-3 ovarian = system: SK-OV-3 ovarian
SN12C renal = system: SN12C renal
SNB-19 CNS = system: SNB-19 CNS
SNB-75 CNS = system: SNB-75 CNS
SR leukemia = system: SR leukemia
SW-620 colon = system: SW-620 colon
T-47D breast = system: T-47D breast
TK-10 renal = system: TK-10 renal
U251 CNS = system: U251 CNS
UACC-257 melanoma = system: UACC-257 melanoma
UACC-62 melanoma = system: UACC-62 melanoma
UO-31 renal = system: UO-31 renal
MCF7 breast = system: MCF7 breast

O=C(N/N=C/c1ccccc1O)C(O)(c1ccccc1)c1ccccc1
inactive: GI50 (786-0 renal) > 100 µM | GI50 (A498 renal) > 100 µM | GI50 (A549 NSCLC) 9.67 µM | GI50 (ACHN renal) 8.43 µM | GI50 (BT-549 breast) > 100 µM | GI50 (CAKI-1 renal) 2.36 µM | GI50 (CCRF-CEM leukemia) 2.26 µM | GI50 (COLO 205 colon) 3.43 µM | GI50 (DU-145 prostate) > 100 µM | GI50 (EKVX NSCLC) 3.6 µM | GI50 (HCC-2998 colon) 17.4 µM | GI50 (HCT-116 colon) 2.95 µM | GI50 (HCT-15 colon) 3.54 µM | GI50 (HL-60(TB) leukemia) 2.88 µM | GI50 (HOP-62 NSCLC) 7.37 µM | GI50 (HOP-92 NSCLC) > 100 µM | GI50 (HS 578T breast) > 100 µM | GI50 (HT29 colon) 4.46 µM | GI50 (IGROV1 ovarian) 3.83 µM | GI50 (K-562 leukemia) 6.73 µM | GI50 (KM12 colon) 9.93 µM | GI50 (LOX IMVI melanoma) 5.09 µM | GI50 (M14 melanoma) 50.5 µM | GI50 (MALME-3M melanoma) > 100 µM | GI50 (MDA-MB-231 breast) 15 µM | GI50 (MDA-MB-435) > 100 µM | GI50 (MOLT-4 leukemia) 4.46 µM | GI50 (NCI-H226 lung) > 100 µM | GI50 (NCI-H23 lung) > 100 µM | GI50 (NCI-H460 lung) 3.54 µM | GI50 (NCI-H522 lung) 19.7 µM | GI50 (NCI/ADR-RES ovarian) 7.65 µM | GI50 (OVCAR-3 ovarian) 2.66 µM | GI50 (OVCAR-4 ovarian) 3.43 µM | GI50 (OVCAR-5 ovarian) > 100 µM | GI50 (OVCAR-8 ovarian) 13.1 µM | GI50 (PC-3 prostate) > 100 µM | GI50 (RPMI-8226 leukemia) > 100 µM | GI50 (RXF 393 renal) > 100 µM | GI50 (SF-268 CNS) 8.69 µM | GI50 (SF-295 CNS) 4.5 µM | GI50 (SF-539 CNS) > 100 µM | GI50 (SK-MEL-2 melanoma) 53.1 µM | GI50 (SK-MEL-28 melanoma) > 100 µM | GI50 (SK-MEL-5 melanoma) > 100 µM | GI50 (SK-OV-3 ovarian) > 100 µM | GI50 (SN12C renal) > 100 µM | GI50 (SNB-19 CNS) > 100 µM | GI50 (SNB-75 CNS) > 100 µM | GI50 (SR leukemia) 4.29 µM | GI50 (SW-620 colon) > 100 µM | GI50 (T-47D breast) 8.02 µM | GI50 (TK-10 renal) > 100 µM | GI50 (U251 CNS) 4.77 µM | GI50 (UACC-257 melanoma) 5.99 µM | GI50 (UACC-62 melanoma) 15 µM | GI50 (UO-31 renal) 2 µM
> 100 µM: TGI (786-0 renal) | TGI (A498 renal) | TGI (A549 NSCLC) | TGI (ACHN renal) | TGI (BT-549 breast) | TGI (CAKI-1 renal) | TGI (CCRF-CEM leukemia) | TGI (COLO 205 colon) | TGI (DU-145 prostate) | TGI (EKVX NSCLC) | TGI (HCC-2998 colon) | TGI (HCT-116 colon) | TGI (HCT-15 colon) | TGI (HL-60(TB) leukemia) | TGI (HOP-62 NSCLC) | TGI (HOP-92 NSCLC) | TGI (HS 578T breast) | TGI (HT29 colon) | TGI (IGROV1 ovarian) | TGI (K-562 leukemia) | TGI (KM12 colon) | TGI (LOX IMVI melanoma) | TGI (M14 melanoma) | TGI (MALME-3M melanoma) | TGI (MDA-MB-231 breast) | TGI (MDA-MB-435) | TGI (MOLT-4 leukemia) | TGI (NCI-H226 lung) | TGI (NCI-H23 lung) | TGI (NCI-H460 lung) | TGI (NCI-H522 lung) | TGI (NCI/ADR-RES ovarian) | TGI (OVCAR-3 ovarian) | TGI (OVCAR-4 ovarian) | TGI (OVCAR-5 ovarian) | TGI (OVCAR-8 ovarian) | TGI (PC-3 prostate) | TGI (RPMI-8226 leukemia) | TGI (RXF 393 renal) | TGI (SF-268 CNS) | TGI (SF-295 CNS) | TGI (SF-539 CNS) | TGI (SK-MEL-2 melanoma) | TGI (SK-MEL-28 melanoma) | TGI (SK-MEL-5 melanoma) | TGI (SK-OV-3 ovarian) | TGI (SN12C renal) | TGI (SNB-19 CNS) | TGI (SNB-75 CNS) | TGI (SR leukemia) | TGI (SW-620 colon) | TGI (T-47D breast) | TGI (TK-10 renal) | TGI (U251 CNS) | TGI (UACC-257 melanoma) | TGI (UACC-62 melanoma) | TGI (UO-31 renal)

COc1ccc(CC2c3cc(OC)c(OC)c(OC)c3CC[N+]2(C)C)cc1Oc1ccc(CC2c3cc4c(c(OC)c3CC[N+]2(C)C)OCO4)cc1 (configuration not stated)
> 100 µM: TGI (786-0 renal) | TGI (A498 renal) | TGI (A549 NSCLC) | TGI (ACHN renal) | TGI (BT-549 breast) | TGI (CAKI-1 renal) | TGI (CCRF-CEM leukemia) | TGI (COLO 205 colon) | TGI (DU-145 prostate) | TGI (EKVX NSCLC) | TGI (HCC-2998 colon) | TGI (HCT-116 colon) | TGI (HCT-15 colon) | TGI (HL-60(TB) leukemia) | TGI (HOP-92 NSCLC) | TGI (HS 578T breast) | TGI (HT29 colon) | TGI (IGROV1 ovarian) | TGI (K-562 leukemia) | TGI (KM12 colon) | TGI (LOX IMVI melanoma) | TGI (M14 melanoma) | TGI (MALME-3M melanoma) | TGI (MCF7 breast) | TGI (MDA-MB-231 breast) | TGI (MDA-MB-435) | TGI (MOLT-4 leukemia) | TGI (NCI-H226 lung) | TGI (NCI-H23 lung) | TGI (NCI-H460 lung) | TGI (NCI-H522 lung) | TGI (NCI/ADR-RES ovarian) | TGI (OVCAR-4 ovarian) | TGI (OVCAR-5 ovarian) | TGI (OVCAR-8 ovarian) | TGI (PC-3 prostate) | TGI (SF-268 CNS) | TGI (SF-295 CNS) | TGI (SK-MEL-2 melanoma) | TGI (SK-MEL-28 melanoma) | TGI (SK-MEL-5 melanoma) | TGI (SK-OV-3 ovarian) | TGI (SN12C renal) | TGI (SNB-19 CNS) | TGI (SNB-75 CNS) | TGI (SR leukemia) | TGI (SW-620 colon) | TGI (T-47D breast) | TGI (TK-10 renal) | TGI (U251 CNS) | TGI (UACC-257 melanoma) | TGI (UACC-62 melanoma) | TGI (UO-31 renal)
